US9340577B2, “HLA binding motifs and peptides and their uses” (priority 1992, dated 2016)
Where two headings read alike, the source gives them in different places. No end group written: not given here.

Tests used:
Assay in all cases: biochemical
HLA-A1 (A*0101) = HLA-A1 (A*0101) (Homo sapiens, UniProt P04439, A114D/A174V/A182V/D101N/D185E/E176A/E190D/L180R/Q94H/R68K/S129P/T187R/V100A/V91M/W191G); format: binding
A*2902 = A*2902 (Homo sapiens, UniProt P04439, A270S/D101N/D185E/E176V/E277Q/E87Q/F33T/G231S/H175R/I121M/I218V/I322F/K168Q/L300P/L318F/M331R/P208A/P217A/Q86L/T323A/T345S/V100A/V358M); format: binding
A*3002 = A*3002 (Homo sapiens, UniProt P04439, D101N/D140H/D185E/E176R/F33S/G80R/H175R/K168Q/Q94H/R138E/R41S/V100E); format: binding
A*2601 = A*2601 (Homo sapiens, UniProt P04439, A114D/A173T/A270S/D101N/D185E/E277Q/E87N/F33Y/G231S/I121R/I218V/K168Q/L180W/L300P/L318F/P208A/P217A/Q86R/Q94H/R138Q/S129P/T187R/T323A/T345S/V100A/V358M); format: binding
B*0701 = B*0701 (Homo sapiens, UniProt P01889)
B*5401 = B*5401 (Homo sapiens, UniProt P01889, A329T/C349S/D138N/D201E/E176V/E187T/E204Q/E69G/I76V/K202T/L119W/R155S/R180L/S121T/S35A/S48A/V127L/V306I/V36M/Y140L)
[1] = B*0701 (nM), Binding of peptides to B7-like supermotif alleles, Table 36

| Sequence | IC50 (HLA-A1 (A*0101)) [nM] | IC50 (A*2902) [nM] | IC50 (A*3002) [nM] | IC50 (A*2601) [nM] | other results |
| --- | --- | --- | --- | --- | --- |
| LSDTRNDVGPY [Peptide 9012.0164] | 14 | 9860 | 152 | 586 | – |
| NPAEKLRHL [15.105] | – | – | – | – | IC50 (B*0701; [1]): 509 nM |
| NPYNTPVFAI [15.255] | – | – | – | – | IC50 (B*5401): 6600 nM |
| QAEPDTSNY [Peptide 1549.03] | 319 | > 20000 | 9930 | > 20000 | – |
| QPDKSESEL [15.092] | – | – | – | – | IC50 (B*0701; [1]): 9000 nM |
| QVDYYGLYY [Peptide 1580.19] | 3.4 | 69 | 1150 | 777 | – |
| RTDGNRQIIGY [Peptide 9012.0158] | 140 | > 20000 | 95 | > 20000 | – |
| RTDPVTLDVLY [Peptide 9012.0168] | 6.7 | 1310 | 10 | 2520 | – |
| RTTQLFEDNY [Peptide 9012.0149] | 2390 | 11200 | 7.4 | > 20000 | – |
| SMDNPEGRY [Peptide 9012.0122] | 141 | 1440 | 11 | 535 | – |
| SPEVIPMFSA [16.192] | – | – | – | – | IC50 (B*5401): 5620 nM |
| SPIETVPVKL [15.253] | – | – | – | – | IC50 (B*0701; B*0701 (nM), binding of B7-like supermotif 10-mer peptides to purified HLA-B*0701): 1960 nM |
| SPTPLLYRL [15.053] | – | – | – | – | IC50 (B*0701): 2300 nM |
| SPWLTPRCM [15.046] | – | – | – | – | IC50 (B*0701): 651 nM |
| TIEKLTNTGLY [Peptide 1589.45] | 78 | 15100 | 220 | 12 | – |
| TPPLVKLWV [15.090] | – | – | – | – | IC50 (B*5401): 4820 nM |

| Sequence | IC50 (HLA-A1 (A*0101)) [nM] | IC50 (A*2902) [nM] | IC50 (A*3002) [nM] | IC50 (A*2601) [nM] | other results |
| --- | --- | --- | --- | --- | --- |
| TPTLAARNA [16.018] | – | – | – | – | IC50 (B*5401): 5780 nM |
| TPTLHEYML [15.096] | – | – | – | – | IC50 (B*0701; [1]): 51 nM |
| TSDYYIVTY [Peptide 1549.48] | 11 | 11900 | 2200 | 4110 | – |
| VFADLRIVY [Peptide 1549.09] | > 20000 | 2.9 | 21 | 1800 | – |
| VPGAATPYA [16.175] | – | – | – | – | IC50 (B*5401): 5780 nM |
| VPHPNIEEVA [16.189] | – | – | – | – | IC50 (B*5401): 36 nM |
| VPVKLKPGM [15.074] | – | – | – | – | IC50 (B*0701; [1]): 18000 nM |
| VQEKILDLY [Peptide 86.0149] | 1440 | 17000 | 193 | 8180 | – |
| VSDFRWYRY [Peptide 1549.43] | 24 | 241 | 99 | 3070 | – |
| VTADLRIVY [Peptide 1549.50] | 1520 | 228 | 50 | 121 | – |
| VTDCPYNY [Peptide 9012.0106] | 79 | 1450 | 1630 | > 20000 | – |
| VTEFRWYRY [Peptide 1549.42] | 26 | 256 | 92 | 3150 | – |
| VTQGLPREY [Peptide 9012.0128] | 848 | 1010 | 1.7 | 3890 | – |
| WTSTDNKNY [Peptide 1580.31] | 163 | > 20000 | 7310 | 4830 | – |
| YSDVRKYRY [Peptide 1549.49] | 18 | 209 | 275 | > 20000 | – |
